In brackets after ≈: the same amount, converted by molar mass. Where two headings read alike, the source gives them in different places.
Assays:
[1] = Hydrate screen: solubility in EtOH/water mixtures with different water activities; type: physicochemical; settings: thermodynamic from solid, slurry at room temperature
Experimental: A hydrate screen of Compound of Formula (D) was performed using a mixture of anhydrous forms of Compound of Formula (D) Form II and of Compound of Formula (D) Form I and EtOH/water solvent mixtures with different water activities (Table 1). Compound of Formula (D) Form II and Compound of Formula (D) Form I (about 20 to about 40 mg) was slurried in about 1 mL of EtOH/water or water. Samples were analyzed after about 1 day and after about 2 weeks of equilibration at room temperature. Pure anhydrous Compound of Formula (D) Form I was obtained after 1 day in mixtures with about 0.2 to about 0.4 water activity. However, after 2 weeks of equilibration a new form was obtained in EtOH/water with 0.4 water activity. This form was designated as Compound of Formula (D) Form III. Compound of Formula (D) hydrate Form I was obtained in solvents with about 0.5 to about 1.0 water activity after 1 day and after about 2 weeks.

[2] = DVS analysis (moisture uptake); type: physicochemical; settings: at 90% RH
Experimental: Compound of Formula (D) Form I was obtained after the isothermal hold of Compound of Formula (D) hydrate Form I at about 150° C. Compound of Formula (D) Form I was also obtained after KF analysis of Compound of Formula (D) Form II and Compound of Formula (D) Form I at about 180° C. Slurries of Compound of Formula (D) hydrate Form I in water miscible organic solvents also afforded Compound of Formula (D) Form I (MeCN, MeOH, EtOH, IPA, acetone, and THF). […] (FIG. 10). DSC thermogram afforded single endotherm with onset at about 252° C. (FIG. 11). […] No form change was observed after DVS.

[3] = slurry at room temperature
Experimental: A stable form screen of Compound of Formula (D) hydrate Form I was performed in an attempt to determine the stability of Compound of Formula (D) hydrate Form I in different organic solvents. […] Compound of Formula (D) hydrate Form I (about 50 to about 60 mg) was slurried in about 1 mL of chosen solvent. Solids were analyzed by XRPD after about 1 day and about 2 weeks of equilibration at room temperature.
A stable form screen of Compound of Formula (D) hydrate Form I was performed in an attempt to determine the stability of Compound of Formula (D) hydrate Form I in different organic solvents. […] Compound of Formula (D) hydrate Form I (about 50 to about 60 mg) was slurried in 1 mL of chosen solvent. Solids were analyzed by XRPD after 1 day and 2 weeks of equilibration at room temperature.

Cc1cc(F)c(C(=O)O)cc1-n1cnc(C2CC2)c1 [5-(4-cyclopropyl-1H-imidazol-1-1-2-fluoro-4-methylbenzoic acid]
Solubility ([1]; EtOH/water solvent mixture, aqueous with cosolvent or surfactant or cyclodextrin, EtOH/water, water activity 0.9 (water 0.825 mL, EtOH 0.175 mL)): 3930 µg/mL (≈ 15.1 mM)
Solubility ([1]; EtOH/water solvent mixture, organic solvent or mixture, EtOH/water, water activity 0.2 (water 0.031 mL, EtOH 0.969 mL)): 7270 µg/mL (≈ 27.9 mM)
Solubility ([1]; EtOH/water solvent mixture, organic solvent or mixture, EtOH/water, water activity 0.3 (water 0.066 mL, EtOH 0.934 mL)): 8060 µg/mL (≈ 31 mM)
Solubility ([1]; EtOH/water solvent mixture, organic solvent or mixture, EtOH/water, water activity 0.4 (water 0.077 mL, EtOH 0.923 mL)): 7860 µg/mL (≈ 30.2 mM)
Solubility ([1]; EtOH/water solvent mixture, organic solvent or mixture, EtOH/water, water activity 0.5 (water 0.097 mL, EtOH 0.903 mL)): 8160 µg/mL (≈ 31.4 mM)
Solubility ([1]; EtOH/water solvent mixture, organic solvent or mixture, EtOH/water, water activity 0.6 (water 0.149 mL, EtOH 0.851 mL)): 6590 µg/mL (≈ 25.3 mM)
Solubility ([1]; EtOH/water solvent mixture, organic solvent or mixture, EtOH/water, water activity 0.7 (water 0.263 mL, EtOH 0.737 mL)): 6880 µg/mL (≈ 26.4 mM)
Solubility ([1]; EtOH/water solvent mixture, organic solvent or mixture, EtOH/water, water activity 0.8 (water 0.481 mL, EtOH 0.519 mL)): 6560 µg/mL (≈ 25.2 mM)
Solubility ([1]; water, water activity 1.0 (water 1.0 mL, EtOH 0)): 3320 µg/mL (≈ 12.8 mM)

Cc1cc(F)c(C(=O)O)cc1-n1cnc(C2CC2)c1 [Compound of Formula (D) Form I]
moisture uptake (DVS; slightly hygroscopic) [2]: about 0.5%

Cc1cc(F)c(C(=O)O)cc1-n1cnc(C2CC2)c1.O [Compound of Formula (D) Hydrate Form I]
Solubility ([3]; solvent 2-MeTHF): 4480 µg/mL
Solubility ([3]; solvent Acetone): 1990 µg/mL
Solubility ([3]; solvent DCM): 190 µg/mL
Solubility ([3]; solvent EtOAc): 730 µg/mL
Solubility ([3]; solvent EtOH): 6180 µg/mL
Solubility ([3]; solvent IPA): 2900 µg/mL
Solubility ([3]; solvent IPAc): 450 µg/mL
Solubility ([3]; solvent MeCN): 400 µg/mL
Solubility ([3]; solvent MeOH): 20670 µg/mL
Solubility ([3]; solvent THF): 11790 µg/mL

From US10604490B2, “Processes for preparing ASK1 inhibitors” (Gilead Sciences, Inc., priority 2014, dated 2020)
